Reference: PubChem BioAssay (NCI)
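Compound exposure: 48 hours, 5 concentrations, 96-well plates. At the GI50, growth is halved. The concentration for full growth arrest is given as TGI.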

What was measured:
Assay in all cases: NCI anticancer screen, dose series, 48 h
[1] = system: 786-0 renal
[2] = system: A498 renal
[3] = system: A549 NSCLC
[4] = system: ACHN renal
[5] = system: BT-549 breast
[6] = system: CAKI-1 renal
[7] = system: CCRF-CEM leukemia
[8] = system: DU-145 prostate
[9] = system: EKVX NSCLC
[10] = system: HCC-2998 colon
[11] = system: HCT-116 colon
[12] = system: HCT-15 colon
[13] = system: HL-60(TB) leukemia
[14] = system: HOP-62 NSCLC
[15] = system: HS 578T breast
[16] = system: HT29 colon
[17] = system: IGROV1 ovarian
[18] = system: K-562 leukemia
[19] = system: KM12 colon
[20] = system: LOX IMVI melanoma
[21] = system: M14 melanoma
[22] = system: MALME-3M melanoma
[23] = system: MCF7 breast
[24] = system: MDA-MB-231 breast
[25] = system: MDA-MB-435
[26] = system: MOLT-4 leukemia
[27] = system: NCI-H226 lung
[28] = system: NCI-H23 lung
[29] = system: NCI-H460 lung
[30] = system: NCI-H522 lung
[31] = system: NCI/ADR-RES ovarian
[32] = system: OVCAR-4 ovarian
[33] = system: OVCAR-5 ovarian
[34] = system: OVCAR-8 ovarian
[35] = system: PC-3 prostate
[36] = system: RPMI-8226 leukemia
[37] = system: SF-268 CNS
[38] = system: SF-295 CNS
[39] = system: SF-539 CNS
[40] = system: SK-MEL-2 melanoma
[41] = system: SK-MEL-28 melanoma
[42] = system: SK-MEL-5 melanoma
[43] = system: SK-OV-3 ovarian
[44] = system: SN12C renal
[45] = system: SNB-19 CNS
[46] = system: SNB-75 CNS
[47] = system: SR leukemia
[48] = system: SW-620 colon
[49] = system: T-47D breast
[50] = system: TK-10 renal
[51] = system: U251 CNS
[52] = system: UACC-257 melanoma
[53] = system: UACC-62 melanoma
[54] = system: UO-31 renal
[55] = system: COLO 205 colon
[56] = system: HOP-92 NSCLC
[57] = system: OVCAR-3 ovarian
[58] = system: RXF 393 renal

SMILES: COc1cc(-c2nnc(SCc3ccc(O)c4ncccc34)n2-c2ccccc2)cc(OC)c1OC
- GI50 [1]: 498 nM
- TGI [1]: > 20.9 µM
- GI50 [2]: 320 nM
- TGI [2]: 2.32 µM
- GI50 [3]: 412 nM
- TGI [3]: > 100 µM
- GI50 [4]: 285 nM
- TGI [4]: > 100 µM
- GI50 [5]: 178 nM
- TGI [5]: > 26 µM
- GI50 [6]: 274 nM
- TGI [6]: > 100 µM
- GI50 [7]: 188 nM
- TGI [7]: > 100 µM
- GI50 [8]: 273 nM
- TGI [8]: > 100 µM
- GI50 [9]: 367 nM
- TGI [9]: > 100 µM
- GI50 [10]: 447 nM
- TGI [10]: > 100000 nM
- GI50 [11]: 97.9 nM
- TGI [11]: > 40.3 µM
- GI50 [12]: 53 nM
- TGI [12]: > 100 µM
- GI50 [13]: 276 nM
- GI50 [14]: 261 nM
- GI50 [15]: 161 nM
- GI50 [16]: 2040 nM
- TGI [16]: > 100 µM
- GI50 [17]: 272 nM
- TGI [17]: > 100 µM
- GI50 [18]: 83 nM
- TGI [18]: > 100 µM
- GI50 [19]: 336 nM
- TGI [19]: > 100 µM
- GI50 [20]: 180 nM
- TGI [20]: 4.44 µM
- GI50 [21]: 386 nM
- TGI [21]: 2420 nM
- GI50 [22]: 336 nM
- TGI [22]: > 20.6 µM
- GI50 [23]: 37.7 nM
- TGI [23]: > 100 µM
- GI50 [24]: 390 nM
- TGI [24]: > 100 µM
- GI50 [25]: 194 nM
- TGI [25]: > 100 µM
- GI50 [26]: 294 nM
- TGI [26]: > 100 µM
- GI50 [27]: 359 nM
- TGI [27]: > 100 µM
- GI50 [28]: 75.7 nM
- TGI [28]: > 100 µM
- GI50 [29]: 50 nM
- TGI [29]: 2.03 µM
- GI50 [30]: 86.3 nM
- TGI [30]: 921 nM
- GI50 [31]: 67.8 nM
- TGI [31]: > 100 µM
- GI50 [32]: 400 nM
- TGI [32]: > 100 µM
- GI50 [33]: 668 nM
- TGI [33]: > 100 µM
- GI50 [34]: 102 nM
- TGI [34]: > 100 µM
- GI50 [35]: 87.4 nM
- TGI [35]: > 100 µM
- GI50 [36]: 190 nM
- TGI [36]: > 100 µM
- GI50 [37]: 218 nM
- TGI [37]: > 100 µM
- GI50 [38]: 200 nM
- TGI [38]: > 100 µM
- GI50 [39]: 262 nM
- GI50 [40]: 197 nM
- TGI [40]: 626 nM
- GI50 [41]: 367 nM
- TGI [41]: > 100 µM
- GI50 [42]: 207 nM
- TGI [42]: 0.899 µM
- GI50 [43]: 302 nM
- TGI [43]: 23.5 µM
- GI50 [44]: 211 nM
- TGI [44]: > 100 µM
- GI50 [45]: 128 nM
- TGI [45]: > 100 µM
- GI50 [46]: 229 nM
- TGI [46]: > 20.2 µM
- GI50 [47]: 140 nM
- TGI [47]: > 100 µM
- GI50 [48]: 158 nM
- TGI [48]: > 100 µM
- GI50 [49]: 71.2 nM
- TGI [49]: > 100 µM
- GI50 [50]: 291 nM
- TGI [50]: > 100 µM
- GI50 [51]: 66 nM
- TGI [51]: > 100 µM
- GI50 [52]: 342 nM
- TGI [52]: 3.22 µM
- GI50 [53]: 331 nM
- TGI [53]: 2.34 µM
- GI50 [54]: 113 nM
- TGI [54]: 991 nM

SMILES: c1ccc2c(NCCCn3ccnc3)c3oc4ccccc4c3nc2c1
- GI50 [1]: 2570 nM
- TGI [1]: 13.2 µM
- GI50 [2]: 2890 nM
- TGI [2]: 9.13 µM
- GI50 [4]: 942 nM
- TGI [4]: 10.5 µM
- GI50 [5]: 1980 nM
- TGI [5]: 4.75 µM
- GI50 [6]: 1700 nM
- TGI [6]: 6.56 µM
- GI50 [7]: 2350 nM
- TGI [7]: 18 µM
- GI50 [55]: 1420 nM
- TGI [55]: 3.04 µM
- GI50 [8]: 2630 nM
- TGI [8]: 15.5 µM
- GI50 [9]: 2800 nM
- TGI [9]: 11 µM
- GI50 [10]: 1360 nM
- TGI [10]: 2990 nM
- GI50 [11]: 518 nM
- TGI [11]: 10.3 µM
- GI50 [12]: 1790 nM
- TGI [12]: 10.6 µM
- GI50 [13]: 2500 nM
- TGI [13]: 7.72 µM
- GI50 [14]: 1590 nM
- TGI [14]: 4.3 µM
- GI50 [56]: 1110 nM
- TGI [56]: 3.68 µM
- GI50 [15]: 2790 nM
- TGI [15]: 14 µM
- GI50 [16]: 1050 nM
- TGI [16]: 3.08 µM
- GI50 [17]: 2820 nM
- TGI [17]: 10.8 µM
- GI50 [18]: 1810 nM
- TGI [18]: > 100 µM
- GI50 [19]: 2510 nM
- TGI [19]: > 100 µM
- GI50 [20]: 1350 nM
- TGI [20]: 3.3 µM
- GI50 [21]: 1890 nM
- TGI [21]: 3560 nM
- GI50 [22]: 2660 nM
- TGI [22]: 6.23 µM
- GI50 [23]: 1780 nM
- TGI [23]: 7.62 µM
- GI50 [24]: 2040 nM
- TGI [24]: 7.73 µM
- GI50 [25]: 2130 nM
- TGI [25]: 5.2 µM
- GI50 [26]: 524 nM
- TGI [26]: 71.8 µM
- GI50 [27]: 1940 nM
- TGI [27]: 4.7 µM
- GI50 [29]: 1270 nM
- TGI [29]: 8.27 µM
- GI50 [30]: 1580 nM
- TGI [30]: 3630 nM
- GI50 [31]: 1870 nM
- TGI [31]: 6.18 µM
- GI50 [57]: 3.38 µM
- TGI [57]: > 100 µM
- GI50 [32]: 2120 nM
- TGI [32]: 7.47 µM
- GI50 [33]: 1990 nM
- TGI [33]: 6.54 µM
- GI50 [34]: 1580 nM
- TGI [34]: 4.55 µM
- GI50 [35]: 2080 nM
- TGI [35]: 6.85 µM
- GI50 [36]: 2040 nM
- TGI [36]: 5.62 µM
- GI50 [58]: 1410 nM
- TGI [58]: 3.23 µM
- GI50 [37]: 2200 nM
- TGI [37]: 12.1 µM
- GI50 [38]: 2530 nM
- TGI [38]: 10.5 µM
- GI50 [39]: 1710 nM
- TGI [39]: 3.94 µM
- GI50 [40]: 1850 nM
- TGI [40]: 3600 nM
- GI50 [41]: 2150 nM
- TGI [41]: 4.32 µM
- GI50 [42]: 2270 nM
- TGI [42]: 5.14 µM
- GI50 [43]: 2300 nM
- TGI [43]: 6.85 µM
- GI50 [44]: 1700 nM
- TGI [44]: 11 µM
- GI50 [45]: 2600 nM
- TGI [45]: 14.2 µM
- GI50 [46]: 1850 nM
- TGI [46]: 4.93 µM
- GI50 [47]: 1730 nM
- TGI [47]: > 100 µM
- GI50 [48]: 792 nM
- TGI [48]: 10.9 µM
- GI50 [49]: 2310 nM
- TGI [49]: 8.53 µM
- GI50 [50]: 3290 nM
- TGI [50]: 8.62 µM
- GI50 [51]: 2330 nM
- TGI [51]: 10.3 µM
- GI50 [52]: 2350 nM
- TGI [52]: 6 µM
- GI50 [53]: 2010 nM
- TGI [53]: 4.62 µM
- GI50 [54]: 1420 nM
- TGI [54]: 3280 nM
